How the values were obtained:
[1] = molecular target: T1, MAP/microtubule affinity-regulating kinase 4 (Mus musculus, UniProt Q8CIP4); assay: Inhibition of MARK4 in mouse cortical neurons assessed as inhibition of okadaic acid-induced tau phosphorylation at S262 residue preincubated for 15 mins followed okadaic acid challenge for 1.5 hrs by immunostaining method
T1 sequence (Q8CIP4 whole entry): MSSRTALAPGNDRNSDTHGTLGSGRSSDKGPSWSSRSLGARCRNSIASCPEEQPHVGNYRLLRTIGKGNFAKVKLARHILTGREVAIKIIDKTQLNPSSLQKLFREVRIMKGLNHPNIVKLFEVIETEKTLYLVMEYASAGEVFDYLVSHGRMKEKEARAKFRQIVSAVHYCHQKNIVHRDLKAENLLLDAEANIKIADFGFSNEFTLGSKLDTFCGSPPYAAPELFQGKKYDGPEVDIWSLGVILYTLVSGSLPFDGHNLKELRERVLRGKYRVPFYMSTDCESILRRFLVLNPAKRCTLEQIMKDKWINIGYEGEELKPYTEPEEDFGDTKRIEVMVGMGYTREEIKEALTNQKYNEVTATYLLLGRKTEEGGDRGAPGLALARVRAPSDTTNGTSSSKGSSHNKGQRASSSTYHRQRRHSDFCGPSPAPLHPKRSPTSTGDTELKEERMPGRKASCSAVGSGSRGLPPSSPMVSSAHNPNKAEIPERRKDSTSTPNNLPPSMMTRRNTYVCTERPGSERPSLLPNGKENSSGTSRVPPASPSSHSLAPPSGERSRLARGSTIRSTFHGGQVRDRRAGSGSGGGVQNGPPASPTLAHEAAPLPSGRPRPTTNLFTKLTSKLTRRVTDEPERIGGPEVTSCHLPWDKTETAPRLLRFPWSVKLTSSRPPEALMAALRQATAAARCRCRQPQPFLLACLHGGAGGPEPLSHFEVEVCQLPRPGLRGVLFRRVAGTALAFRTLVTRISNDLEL

[2] = molecular target: Protein kinase C theta type (Homo sapiens, UniProt Q04759); assay: Inhibition of full-length recombinant human His-tagged PRKCQ expressed in baculovirus expression system by Z'-LYTE assay
Protein kinase C theta type, sequence (Q04759 whole entry): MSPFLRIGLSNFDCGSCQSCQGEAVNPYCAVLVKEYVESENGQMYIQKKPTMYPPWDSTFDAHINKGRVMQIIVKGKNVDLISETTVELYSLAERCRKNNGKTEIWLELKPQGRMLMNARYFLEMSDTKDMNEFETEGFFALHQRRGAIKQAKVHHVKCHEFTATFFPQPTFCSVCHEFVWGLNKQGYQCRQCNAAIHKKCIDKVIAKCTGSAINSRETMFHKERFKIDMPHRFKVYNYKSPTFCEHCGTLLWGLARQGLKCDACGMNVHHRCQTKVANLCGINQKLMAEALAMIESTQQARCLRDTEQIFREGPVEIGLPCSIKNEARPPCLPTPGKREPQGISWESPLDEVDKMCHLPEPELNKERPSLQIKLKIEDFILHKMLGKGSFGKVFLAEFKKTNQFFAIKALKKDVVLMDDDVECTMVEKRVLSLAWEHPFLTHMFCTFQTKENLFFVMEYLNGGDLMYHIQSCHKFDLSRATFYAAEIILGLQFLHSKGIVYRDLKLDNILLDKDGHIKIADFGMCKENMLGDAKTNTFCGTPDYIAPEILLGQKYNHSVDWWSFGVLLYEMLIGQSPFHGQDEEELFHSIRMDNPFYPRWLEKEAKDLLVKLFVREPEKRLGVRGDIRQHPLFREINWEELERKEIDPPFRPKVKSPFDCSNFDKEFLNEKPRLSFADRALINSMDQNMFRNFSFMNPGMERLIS

[3] = molecular target: T2, Ephrin type-A receptor 3 (Homo sapiens, UniProt P29320); assay: Inhibition of recombinant human His-tagged cytoplasmic EPHA3 expressed in baculovirus expression system by LanthaScreen assay
T2 sequence (P29320 whole entry): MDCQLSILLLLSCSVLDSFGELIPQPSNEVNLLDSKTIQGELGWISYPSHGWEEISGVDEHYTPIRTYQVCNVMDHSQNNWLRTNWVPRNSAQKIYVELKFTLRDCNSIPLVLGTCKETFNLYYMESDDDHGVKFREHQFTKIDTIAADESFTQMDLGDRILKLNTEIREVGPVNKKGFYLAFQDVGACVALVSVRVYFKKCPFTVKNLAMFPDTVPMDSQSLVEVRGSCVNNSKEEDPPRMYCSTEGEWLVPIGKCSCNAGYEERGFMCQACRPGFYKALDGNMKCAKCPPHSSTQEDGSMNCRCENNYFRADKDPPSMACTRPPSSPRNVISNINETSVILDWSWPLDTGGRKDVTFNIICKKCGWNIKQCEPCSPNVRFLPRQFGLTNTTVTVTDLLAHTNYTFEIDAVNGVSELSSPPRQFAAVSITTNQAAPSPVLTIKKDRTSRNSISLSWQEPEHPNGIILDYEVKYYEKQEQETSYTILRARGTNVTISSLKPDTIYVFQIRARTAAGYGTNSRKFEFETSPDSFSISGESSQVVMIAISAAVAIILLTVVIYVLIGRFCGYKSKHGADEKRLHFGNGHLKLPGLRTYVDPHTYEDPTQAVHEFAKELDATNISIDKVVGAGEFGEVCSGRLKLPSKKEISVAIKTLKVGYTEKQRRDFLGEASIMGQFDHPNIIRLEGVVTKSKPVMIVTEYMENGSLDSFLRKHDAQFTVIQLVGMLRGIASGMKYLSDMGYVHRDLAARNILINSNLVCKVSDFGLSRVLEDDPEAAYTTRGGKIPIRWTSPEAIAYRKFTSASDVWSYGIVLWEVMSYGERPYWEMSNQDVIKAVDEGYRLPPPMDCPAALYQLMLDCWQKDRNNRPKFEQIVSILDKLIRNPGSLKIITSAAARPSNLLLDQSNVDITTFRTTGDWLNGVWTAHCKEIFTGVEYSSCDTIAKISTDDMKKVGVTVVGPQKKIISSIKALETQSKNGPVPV

[4] = molecular target: CDK9/cyclin T1 (Homo sapiens, UniProt P50750); assay: Inhibition of full-length recombinant human His-tagged CDK9/cyclin T1 expressed in baculovirus expression system by Adapta assay
CDK9/cyclin T1, sequence (O60563 whole entry): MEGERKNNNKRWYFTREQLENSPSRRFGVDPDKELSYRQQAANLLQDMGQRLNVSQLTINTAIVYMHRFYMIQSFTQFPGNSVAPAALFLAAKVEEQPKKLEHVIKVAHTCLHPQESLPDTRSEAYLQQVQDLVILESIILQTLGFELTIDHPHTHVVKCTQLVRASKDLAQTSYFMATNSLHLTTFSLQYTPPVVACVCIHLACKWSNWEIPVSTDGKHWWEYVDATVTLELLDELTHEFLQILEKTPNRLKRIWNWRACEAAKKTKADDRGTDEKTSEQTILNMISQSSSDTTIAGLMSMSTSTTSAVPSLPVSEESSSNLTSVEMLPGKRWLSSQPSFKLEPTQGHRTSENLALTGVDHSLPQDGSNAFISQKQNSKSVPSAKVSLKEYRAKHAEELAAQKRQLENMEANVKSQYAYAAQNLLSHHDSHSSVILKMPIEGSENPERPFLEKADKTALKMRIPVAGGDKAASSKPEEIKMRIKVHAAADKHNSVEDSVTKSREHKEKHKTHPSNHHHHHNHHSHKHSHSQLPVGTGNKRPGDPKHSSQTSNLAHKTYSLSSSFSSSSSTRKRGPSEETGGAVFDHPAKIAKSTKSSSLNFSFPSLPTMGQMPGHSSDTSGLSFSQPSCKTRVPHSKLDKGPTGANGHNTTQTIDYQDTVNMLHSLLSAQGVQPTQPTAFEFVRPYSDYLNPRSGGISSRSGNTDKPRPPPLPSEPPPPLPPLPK
CDK9/cyclin T1, sequence (P50750 whole entry): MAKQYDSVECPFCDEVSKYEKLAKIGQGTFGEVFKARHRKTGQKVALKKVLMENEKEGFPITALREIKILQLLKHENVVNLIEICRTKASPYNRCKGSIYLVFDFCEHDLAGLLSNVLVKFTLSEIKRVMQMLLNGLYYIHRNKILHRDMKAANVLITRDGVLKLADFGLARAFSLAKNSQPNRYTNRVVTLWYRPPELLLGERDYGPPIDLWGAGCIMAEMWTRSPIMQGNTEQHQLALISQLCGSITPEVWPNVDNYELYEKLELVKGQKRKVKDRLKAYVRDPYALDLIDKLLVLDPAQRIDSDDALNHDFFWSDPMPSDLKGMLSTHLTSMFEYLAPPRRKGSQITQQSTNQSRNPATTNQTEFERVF

[5] = molecular target: T3, MAP kinase-activated protein kinase 5 (Homo sapiens, UniProt Q8IW41); assay: Inhibition of full-length recombinant human His-tagged MAPKAPK5 expressed in baculovirus expression system by Z'-LYTE assay
T3 sequence (Q8IW41 whole entry): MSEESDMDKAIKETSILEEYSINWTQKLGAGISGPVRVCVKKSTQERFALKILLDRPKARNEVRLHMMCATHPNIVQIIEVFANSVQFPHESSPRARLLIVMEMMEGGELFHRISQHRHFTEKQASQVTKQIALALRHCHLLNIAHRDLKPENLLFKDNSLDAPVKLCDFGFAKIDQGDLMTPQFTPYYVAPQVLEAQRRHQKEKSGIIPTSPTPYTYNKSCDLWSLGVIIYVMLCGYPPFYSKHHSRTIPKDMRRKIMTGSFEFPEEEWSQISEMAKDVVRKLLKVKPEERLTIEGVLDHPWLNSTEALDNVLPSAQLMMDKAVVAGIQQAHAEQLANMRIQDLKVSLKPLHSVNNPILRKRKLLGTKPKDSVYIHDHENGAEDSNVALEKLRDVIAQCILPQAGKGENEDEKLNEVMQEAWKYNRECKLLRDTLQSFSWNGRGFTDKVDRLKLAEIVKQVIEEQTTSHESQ

[6] = molecular target: Serine/threonine-protein kinase Nek6 (Homo sapiens, UniProt Q9HC98); assay: Inhibition of full-length recombinant human GST-tagged NEK6 expressed in insect cells by Z'-LYTE assay
Serine/threonine-protein kinase Nek6, sequence (Q9HC98 whole entry): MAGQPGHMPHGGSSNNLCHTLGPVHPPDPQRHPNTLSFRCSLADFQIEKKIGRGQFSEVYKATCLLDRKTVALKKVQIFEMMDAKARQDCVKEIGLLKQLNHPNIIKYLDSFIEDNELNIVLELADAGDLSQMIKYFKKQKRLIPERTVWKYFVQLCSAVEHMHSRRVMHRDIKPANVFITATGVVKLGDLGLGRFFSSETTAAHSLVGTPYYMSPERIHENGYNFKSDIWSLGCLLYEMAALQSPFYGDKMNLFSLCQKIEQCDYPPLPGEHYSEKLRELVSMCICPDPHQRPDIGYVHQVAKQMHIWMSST

[7] = molecular target: Serine/threonine-protein kinase 26 (Homo sapiens, UniProt Q9P289); assay: Inhibition of full-length recombinant human GST-tagged MST4 expressed in baculovirus expression system by Z'-LYTE assay
Serine/threonine-protein kinase 26, sequence (Q9P289 whole entry): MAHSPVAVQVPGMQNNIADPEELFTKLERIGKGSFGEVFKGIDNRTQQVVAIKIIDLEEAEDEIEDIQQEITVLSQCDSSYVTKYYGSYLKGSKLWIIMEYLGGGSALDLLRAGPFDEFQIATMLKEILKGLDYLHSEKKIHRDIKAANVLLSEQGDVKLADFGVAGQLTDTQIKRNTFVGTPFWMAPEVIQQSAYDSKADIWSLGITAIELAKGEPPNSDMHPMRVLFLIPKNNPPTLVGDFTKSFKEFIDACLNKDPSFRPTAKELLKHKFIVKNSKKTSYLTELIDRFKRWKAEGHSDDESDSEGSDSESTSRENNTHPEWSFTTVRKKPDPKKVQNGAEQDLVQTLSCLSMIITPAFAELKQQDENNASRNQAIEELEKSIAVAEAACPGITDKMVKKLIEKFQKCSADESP

SMILES | IC50 [1] [nM] | IC50 [2] [nM] | IC50 [3] [nM] | IC50 [4] [nM] | IC50 [5] [nM] | IC50 [6] [nM] | IC50 [7] [nM]
Cn1cc(-c2cnc3c(-c4csc(C(=O)NCC(F)(F)F)c4)cnn3c2)cn1 | 60 | > 100000 | 52 | 35 | 19000 | 5900 | 290
Cc1sc(C(=O)N[C@@H]2[C@H](N)CCCC2(F)F)cc1-c1cnn2cc(Cl)cnc12 | 280 | 8700 | > 100000 | 240 | > 100000 | 17000 | 170
O=C(NCC(F)(F)F)c1cc(-c2cnn3cc(-c4ccc(OCCN5CCCCC5)cc4)cnc23)cs1 | 50 | 6600 | 180 | 45 | 9600 | 8800 | 1100
Cn1cc(-c2cnc3c(-c4csc(C(=O)N[C@@H]5CCCC[C@@H]5N)c4)cnn3c2)cn1 (racemic) | 2 | 270 | 22 | 12 | 1400 | 2600 | 6.3
